This note sets out measurements from patent US8435981B2, “2-(heterocyclylbenzyl)pyridazinone derivatives” (Merck Patent Gesellschaft mit Beschränkter Haftung, priority 2006, dated 2013).

Assay [1] deals with T1, Met kinase (Homo sapiens, UniProt P08581). Briefly: Met kinase inhibition, enzyme assay (flashplate method). It counts as biochemical. Also noted: 6His (N); purchased Upstate 14-526; host or cells: Sf21 insect cells (S. frugiperda), baculovirus. The method, then:
Flashplate Method (Met Kinase)
The test plates used are 96-well Flashplate® microtitre plates from Perkin Elmer (Cat. No. SMP200). The components of the kinase reaction described below are pipetted into the assay plate. The Met kinase and the substrate poly Ala-Glu-Lys-Tyr, (pAGLT, 6:2:5:1), are incubated for 3 hrs at room temperature with radioactively labelled ^33P-ATP in the presence and absence of test substances in a total volume of 100 μl. The reaction is terminated using 150 μl of a 60 mM EDTA solution. After incubation for a further 30 min at room temperature, the supernatants are filtered off with suction, and the wells are washed three times with 200 μl of 0.9% NaCl solution each time. The measurement of the bound radioactivity is carried out by means of a scintillation measuring instrument (Topcount NXT, Perkin-Elmer).
The full value used is the inhibitor-free kinase reaction. This should be approximately in the range 6000-9000 cpm. The pharmacological zero value used is staurosporin in a final concentration of 0.1 mM. The inhibitory values (IC50) are determined using the RS1_MTS program.
Kinase reaction conditions per well:
10 μl of substance to be tested in assay buffer with 10% of DMSO
10 μl of ATP (final concentration 1 μM cold, 0.35 μCi of ^33P-ATP)
50 μl of Met kinase/substrate mixture in assay buffer;
Target sequence in this assay (P08581 974-1390 limits assumed): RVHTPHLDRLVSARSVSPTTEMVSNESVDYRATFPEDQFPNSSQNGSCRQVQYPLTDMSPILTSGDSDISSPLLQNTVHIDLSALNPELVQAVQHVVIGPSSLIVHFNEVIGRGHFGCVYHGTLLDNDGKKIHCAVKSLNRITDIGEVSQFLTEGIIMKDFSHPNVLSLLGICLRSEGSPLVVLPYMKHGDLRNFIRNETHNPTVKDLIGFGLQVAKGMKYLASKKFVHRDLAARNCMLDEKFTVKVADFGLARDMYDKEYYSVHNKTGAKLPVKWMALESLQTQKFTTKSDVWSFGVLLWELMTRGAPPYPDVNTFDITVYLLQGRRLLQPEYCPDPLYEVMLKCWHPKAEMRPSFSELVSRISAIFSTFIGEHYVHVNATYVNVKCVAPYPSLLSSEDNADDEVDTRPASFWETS

The target in assay [2] is T1, Met kinase. Briefly: Met kinase inhibition, cell assay. In kind it is cell-based.
Target sequence in this assay (P08581 25-1390): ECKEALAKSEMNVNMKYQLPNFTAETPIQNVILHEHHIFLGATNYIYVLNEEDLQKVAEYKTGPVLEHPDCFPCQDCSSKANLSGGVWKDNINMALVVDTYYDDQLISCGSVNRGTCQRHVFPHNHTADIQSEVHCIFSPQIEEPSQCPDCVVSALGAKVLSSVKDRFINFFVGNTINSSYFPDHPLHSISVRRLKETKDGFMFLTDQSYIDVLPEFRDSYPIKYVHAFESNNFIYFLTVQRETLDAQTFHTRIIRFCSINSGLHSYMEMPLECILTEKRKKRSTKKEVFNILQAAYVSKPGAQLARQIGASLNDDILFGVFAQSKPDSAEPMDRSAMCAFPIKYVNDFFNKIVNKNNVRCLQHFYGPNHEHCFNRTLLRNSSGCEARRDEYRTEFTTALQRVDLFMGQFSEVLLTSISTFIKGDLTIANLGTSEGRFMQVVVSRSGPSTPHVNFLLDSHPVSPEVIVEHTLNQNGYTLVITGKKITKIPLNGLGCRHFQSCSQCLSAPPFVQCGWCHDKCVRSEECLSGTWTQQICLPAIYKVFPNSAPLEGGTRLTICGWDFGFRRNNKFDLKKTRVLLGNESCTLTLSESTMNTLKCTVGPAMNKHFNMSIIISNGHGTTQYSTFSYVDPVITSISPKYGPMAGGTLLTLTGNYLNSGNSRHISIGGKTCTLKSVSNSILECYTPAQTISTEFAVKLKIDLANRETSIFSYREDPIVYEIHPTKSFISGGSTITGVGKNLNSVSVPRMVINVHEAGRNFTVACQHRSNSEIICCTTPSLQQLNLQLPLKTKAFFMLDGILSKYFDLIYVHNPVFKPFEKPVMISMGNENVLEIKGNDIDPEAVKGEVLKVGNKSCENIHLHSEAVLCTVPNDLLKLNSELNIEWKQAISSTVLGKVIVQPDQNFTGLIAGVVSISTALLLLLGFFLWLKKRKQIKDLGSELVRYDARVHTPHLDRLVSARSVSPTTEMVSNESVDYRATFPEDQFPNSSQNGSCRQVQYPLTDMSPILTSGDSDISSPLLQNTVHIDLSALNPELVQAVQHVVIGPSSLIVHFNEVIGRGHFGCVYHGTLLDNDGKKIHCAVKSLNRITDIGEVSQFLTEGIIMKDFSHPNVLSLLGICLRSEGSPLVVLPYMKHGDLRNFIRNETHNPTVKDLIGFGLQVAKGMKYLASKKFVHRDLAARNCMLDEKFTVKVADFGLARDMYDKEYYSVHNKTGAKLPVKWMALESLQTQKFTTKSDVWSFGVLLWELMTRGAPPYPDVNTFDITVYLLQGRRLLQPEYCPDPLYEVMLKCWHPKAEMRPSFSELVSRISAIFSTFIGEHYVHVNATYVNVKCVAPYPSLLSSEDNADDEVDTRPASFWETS

In general, IC50 refers to the concentration that inhibits the measured activity by half. In turn, `Cc1nc(-c2cccc(Cn3nc(-c4cc(F)cc(F)c4)ccc3=O)c2)no1` [Compound A1, 6-(3,5-difluorophenyl)-2-[3-(5-methyl-1,2,4-oxadiazol-3-yl)benzyl]-2H-pyridazin-3-one] displayed an IC50 in assay [1] of 10 to 1000 nM.

With `CCNc1nc(-c2cccc(Cn3nc(-c4cc(F)cc(F)c4)ccc3=O)c2)no1` [Compound A11, 6-(3,5-difluorophenyl)-2-[3-(5-ethylamino-1,2,4-oxadiazol-3-yl)benzyl]-2H-pyridazin-3-one], the half-maximal inhibitory concentration (IC50) in assay [1] is 10 to 1000 nM.

In the case of `CN(C)CCCNc1nc(-c2cccc(Cn3nc(-c4cc(F)cc(F)c4)ccc3=O)c2)no1` [Compound A12, 6-(3,5-difluorophenyl)-2-{3-[5-(3-dimethylaminopropylamino)-1,2,4-oxadiazol-3-yl]benzyl}-2H-pyridazin-3-one], in assay [1], the IC50 is 10 to 1000 nM.

The molecule `CN1CCN(c2nc(-c3cccc(Cn4nc(-c5cc(F)cc(F)c5)ccc4=O)c3)no2)CC1` [Compound A20, 6-(3,5-difluorophenyl)-2-{3-[5-(4-methylpiperazin-1-yl)-1,2,4-oxadiazol-3-yl]benzyl}-2H-pyridazin-3-one] returned an IC50 in assay [1] of 10 to 1000 nM.

Turning to `CN1CCN(C(=O)c2nc(-c3cccc(Cn4nc(-c5cc(F)cc(F)c5)ccc4=O)c3)no2)CC1` [Compound A21, 6-(3,5-difluorophenyl)-2-{3-[5-(4-methylpiperazine-1-carbonyl)-1,2,4-oxadiazol-3-yl]benzyl}-2H-pyridazin-3-one], the IC50 in assay [1] lay within 10 to 1000 nM.

`O=c1ccc(-c2cc(F)cc(F)c2)nn1Cc1cccc(-c2noc(NCCN3CCOCC3)n2)c1` [Compound A22]: the IC50 in assay [1] lay in the range of 10 to 1000 nM.

Molecule `Cc1cnc(-c2cccc(Cn3nc(-c4cccc(Cl)c4)ccc3=O)c2)o1` [Compound A33] returned an IC50 in assay [1] of 10 to 1000 nM.

`CN1CCC(N(C)c2nc(-c3cccc(Cn4nc(-c5cc(F)cc(F)c5)ccc4=O)c3)no2)CC1` [Compound A46, 6-(3,5-difluorophenyl)-2-(3-{5-[methyl-(1-methylpiperidin-4-yl)-amino]-1,2,4-oxadiazol-3-yl}benzyl)-2H-pyridazin-3-one] came in with an IC50 in assay [1] of 10 to 1000 nM.

Turning to `CCN1CCN(c2nc(-c3cccc(Cn4nc(-c5cc(F)cc(F)c5)ccc4=O)c3)no2)CC1` [Compound A48], the IC50 in assay [1] was 10 to 1000 nM.

For `COCCN1CCN(c2nc(-c3cccc(Cn4nc(-c5cc(F)cc(F)c5)ccc4=O)c3)no2)CC1` [Compound A50, 6-(3,5-Difluorophenyl)-2-(3-{5-[4-(2-methoxyethyl)-piperazin-1-yl]-1,2,4-oxadiazol-3-yl}benzyl)-2H-pyridazin-3-one], in assay [1], the IC50 lay in the range of 10 to 1000 nM.

As for `CN1CCC(c2cnc(-c3cccc(Cn4nc(-c5cc(F)cc(F)c5)ccc4=O)c3)o2)CC1` [Compound A88, 6-(3,5-difluorophenyl)-2-{3-[5-(1-methylpiperidin-4-yl)oxazol-2-yl]benzyl}-2H-pyridazin-3-one], the IC50 in assay [1] lay in the range of 10 to 1000 nM.

`O=c1ccc(-c2cc(F)cc(F)c2)nn1Cc1cccc(-c2ncc(C3CCNCC3)s2)c1` [Compound A91, 6-(3,5-difluorophenyl)-2-[3-(5-piperidin-4-ylthiazol-2-yl)benzyl]-2H-pyridazin-3-one]: in assay [1], the IC50 fell in the range of 10 to 1000 nM.

`O=c1ccc(-c2cc(F)cc(F)c2)nn1Cc1cccc(-c2noc(N3CCN(CCO)CC3)n2)c1` [Compound A111, 6-(3,5-difluorophenyl)-2-(3-{5-[4-(2-hydroxyethyl)piperazin-1-yl]-1,2,4-oxadiazol-3-yl}benzyl)-2H-pyridazin-3-one] had a 50% inhibitory concentration (IC50) in assay [2] of 10 to 1000 nM.

`CCOCCN1CCN(c2nc(-c3cccc(Cn4nc(-c5cc(F)cc(F)c5)ccc4=O)c3)no2)CC1` [Compound A123, 6-(3,5-Difluorophenyl)-2-(3-{5-[4-(2-ethoxyethyl)-piperazin-1-yl]-1,2,4-oxadiazol-3-yl}benzyl)-2H-pyridazin-3-one] yielded an IC50 in assay [2] of 10 to 1000 nM.

In turn, `COCCCN1CCN(c2nc(-c3cccc(Cn4nc(-c5cc(F)cc(F)c5)ccc4=O)c3)no2)CC1` [Compound A124, 6-(3,5-Difluorophenyl)-2-(3-{5-[4-(3-methoxypropyl)-piperazin-1-yl]-1,2,4-oxadiazol-3-yl}benzyl)-2H-pyridazin-3-one] came in with an IC50 in assay [2] of 10 to 1000 nM.
